Measured values reported in US5994629A, “Positive selection” (priority 1991, dated 1999).
Converted amounts (≈) assume the structure as drawn. Counter-ions that a name gives are not always drawn.

Columns and labels:
[1] = target: β-glucuronidase from E. coli (Escherichia coli, UniProt P05804); assay: Hydrolysis by β-glucuronidase (GUS), HPLC/TLC; format: biochemical
Procedure: […] […] This confirms the identity of the product as a conjugate of BA and β-D-glucuronic acid.
[…] The presence of hydrolysis products is then determined using HPLC and TLC.

[2] = test system: leaf discs of tobacco with (GUS+) introduced β-glucuronidase genes; format: cell-based, Nicotiana tabacum 'Wisconsin 38'; conditions: test compounds at several concentrations up to 250 μM in MSO
Solubility = format: physicochemical
[3] = test system: leaf discs of tobacco without (GUS-) introduced β-glucuronidase genes; format: cell-based, Nicotiana tabacum 'Wisconsin 38'; conditions: test compounds at several concentrations up to 250 μM in MSO

Chain of β-glucuronidase from E. coli (P05804 whole entry, looked up): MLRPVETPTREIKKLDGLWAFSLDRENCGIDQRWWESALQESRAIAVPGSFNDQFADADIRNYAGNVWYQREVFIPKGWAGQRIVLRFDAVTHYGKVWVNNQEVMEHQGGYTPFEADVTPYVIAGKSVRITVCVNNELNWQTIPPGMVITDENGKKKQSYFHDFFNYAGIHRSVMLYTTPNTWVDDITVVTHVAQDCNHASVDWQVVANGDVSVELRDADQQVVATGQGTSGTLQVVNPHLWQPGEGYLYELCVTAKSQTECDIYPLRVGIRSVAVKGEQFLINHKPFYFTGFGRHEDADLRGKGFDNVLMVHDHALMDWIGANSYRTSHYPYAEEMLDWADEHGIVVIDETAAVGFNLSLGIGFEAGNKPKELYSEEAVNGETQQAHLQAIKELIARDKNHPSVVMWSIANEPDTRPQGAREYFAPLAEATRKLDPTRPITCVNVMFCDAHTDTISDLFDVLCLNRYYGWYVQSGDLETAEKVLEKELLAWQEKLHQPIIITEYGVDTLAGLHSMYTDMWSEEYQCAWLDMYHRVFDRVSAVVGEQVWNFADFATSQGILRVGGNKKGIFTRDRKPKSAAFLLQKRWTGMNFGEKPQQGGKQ

| SMILES | partial removal of the glucuronide by GUS ([1]; 2500 Fishman units, 48 hours, 37° C., HPLC) | Shoot formation, GUS+ [2] | solubility in words (Solubility; 50% aqueous alcohol) | Shoot formation, GUS- [3] | Hydrolysis by β-glucuronidase (GUS), result in words ([1]; 50 mM sodium phosphate buffer pH 7.0, 37° C., HPLC/TLC) | conversion to o-coumaric acid by GUS ([1]; 5 mg in 1 ml, 1000 units Sigma Type G5897, 12 hours, 37° C., TLC) | solubility (Solubility; aqueous buffer and 50% alcohol, organic solvent or mixture, aqueous buffer, pH 7, and 50% aqueous alcohol) |
| --- | --- | --- | --- | --- | --- | --- | --- |
| CC(C)=CCNc1nc(S[C@@H]2O[C@H](C(=O)O)[C@@H](O)[C@H](O)[C@H]2O)nc2[nH]cnc12 [IP2SGN sodium salt, 6-(3-methyl-but-2-enylamino)purine-2-yl-1-thio-β-D-glucopyranuronic acid, sodium salt] | 65% | + ("+" means shoot formation at concentrations below 250 μM) | sparingly soluble | + ("+" means shoot formation at concentrations below 250 μM) | – | – | – |
| CC(C)=CCNc1ncn([C@@H]2O[C@H](C(=O)[O-])[C@@H](O)[C@H](O)[C@H]2O)c2ncnc1-2.[Na+] [IP3GN sodium salt, 3-β-D-glucopyranuronosyl-6-(3-methyl-but-2-enylamino)purine, sodium salt] | – | + ("+" means shoot formation at concentrations below 250 μM) | – | + ("+" means shoot formation at concentrations below 250 μM) | removal of the UV spot corresponding to IP3GN | – | – |
| O=C(O)C=Cc1ccccc1O[C@@H]1O[C@H](C(=O)O)[C@@H](O)[C@H](O)[C@H]1O [CouGN, 2-hydroxycinnamyl-β-D-glucopyranuronic acid] | – | – | – | – | – | 93.4% | 5000 µg/mL (≈ 14.7 mM) |
